Experimental data reported in ChEMBL document CHEMBL1129678, “Structure-activity relationships in a series of 2(1H)-quinolones bearing different acidic function in the 3-position: 6,7-dichloro-2(1H)-oxoquinoline-3-phosphonic acid, a new potent and selective AMPA/kainate antagonist with neuroprotective properties” (J Med Chem, 1996).
pIC50: −log10 of the molar value. Calls of active or inactive are those of the source. The rule behind the calls is not given here.

Columns and labels:
Glutamate NMDA receptor [1] = test: Antagonistic activity against N-methyl-D-aspartate glutamate receptor 1 in Xenopus oocytes; format: functional, cell-based; details: oocyte
[2] = biological target: Glutamate receptor ionotropic, kainate; test: Antagonistic activity against rat ionotropic glutamate receptor ionotropic kainate in xenopus oocytes; format: functional, cell-based; details: oocyte
[3] = Selectivity between AMPA/kainate receptor and NMDA/glycine receptor; set-up: reference not given here
Glutamate NMDA receptor [4] = test: Inhibitory activity against [3H]glycine binding site of N-methyl-D-aspartate glutamate receptor 1 in rat cortical membranes; format: cell membranes, Membrane
Mus musculus [5] = test: Effective dose required to protect 50% of DBA/2 mice from audiogenic seizures, after ip administration; format: functional
[6] = biological target: AMPA receptor (Rattus norvegicus); test: Inhibitory activity against [3H]AMPA binding to rat cortical membranes
Mus musculus [7] = test: Effective dose of a compound to […] 50% audiogenic seizures in DBA/2 mice when administered by ip (mg/Kg); format: functional
Gerbillinae [8] = test: %Protection against transient global ischemia in adult Mongolian gerbil at dose 10 mg/Kg by ip administration tested against 10; format: functional
Mus musculus [9] = test: Effective dose required to protect 50% of DBA/2 mice from audiogenic seizures, after po administration; format: functional
Gerbillinae [10] = test: %Protection against transient global ischemia in adult Mongolian gerbil at dose 30 mg/Kg by ip administration tested against 6; format: functional
Gerbillinae [11] = test: %Protection against transient global ischemia in adult Mongolian gerbil at dose 10 mg/kg by ip administration tested against 10; format: functional; details: route intraperitoneal
Mus musculus [12] = test: Effective dose of a compound to […] 50% audiogenic seizures in DBA/2 mice when administered by po (mg/kg); Not active; format: functional, organism-based
Gerbillinae [13] = test: %Protection against transient global ischemia in adult Mongolian gerbil at dose 30 mg/kg by ip administration tested against 6; format: functional; details: route intraperitoneal

| Structure (SMILES) | pIC50 (Glutamate NMDA receptor [1]) | pIC50 [2] | Selectivity [3] | other results |
| --- | --- | --- | --- | --- |
| O=C(Nc1nn[nH]n1)c1cc2ccc([N+](=O)[O-])cc2nc1O | < 4.80 | 4.00 | > 0.16 | – |
| O=c1[nH]c2cc([N+](=O)[O-])ccc2cc1-c1cc(O)n[nH]1 | < 4.00 | < 4.52 | – | – |
| OB(O)c1cc2c(Cl)cc(Cl)cc2nc1O | < 3.52 | < 4.00 | – | – |
| O=C(O)c1cc2ccc([N+](=O)[O-])cc2nc1O | 5.19 | 5.89 | 5 | – |
| O=[N+]([O-])c1cc2cc(NS(=O)(=O)C(F)(F)F)c(O)nc2cc1[N+](=O)[O-] | 6.80 | 6.80 | 1 | pIC50 (Glutamate NMDA receptor [4]): 5.86; ED50 (Mus musculus [5]): > 50 mg/kg; pIC50 [6]: 7.05 |
| O=C(O)c1cc2c(Cl)cc(Cl)cc2nc1O | 6.19 | 5.10 | 0.08 | – |
| O=C(O)CSc1cc2ccc([N+](=O)[O-])cc2nc1O | < 4.00 | 5.30 | > 20 | – |
| O=[N+]([O-])c1ccc2cc(-c3nnc(O)o3)c(O)nc2c1 | < 4.00 | < 4.00 | – | – |
| O=c1[nH]c2cc(-n3ccnc3)c([N+](=O)[O-])cc2[nH]c1=O [YM-90K] | 4.52 | 6.52 | 102 | – |
| O=[N+]([O-])c1ccc2cc(-c3nn[nH]n3)c(O)nc2c1 | < 4.80 | 5.52 | > 5 | – |
| NC(=O)c1cc2ccc([N+](=O)[O-])cc2nc1O | < 3.52 | < 3.52 | – | – |
| O=[N+]([O-])c1cc2cc(-c3nn[nH]n3)c(O)nc2cc1[N+](=O)[O-] | 4.70 | 6.22 | 33 | – |
| NS(=O)(=O)c1cccc2c1c([N+](=O)[O-])cc1nc(O)c(O)nc12 [NBQX] | 3.59 | – | – | Protection (Gerbillinae [11]): 40%; ED50 (Mus musculus [12]): inactive; pIC50 (Glutamate NMDA receptor [4]): < 3.30; ED50 (Mus musculus [5]): 8 mg/kg; Protection (Gerbillinae [13]): 50% |

Now from value to molecule, other results behind:

| pIC50 (Glutamate NMDA receptor [1]) | pIC50 [2] | Selectivity [3] | Structure (SMILES) | other results |
| --- | --- | --- | --- | --- |
| 6.24 | 6.52 | 1.9 | O=C(O)c1cc2cc([N+](=O)[O-])c([N+](=O)[O-])cc2nc1O | pIC50 (Glutamate NMDA receptor [4]): 5.74; ED50 (Mus musculus [5]): > 50 mg/kg; pIC50 [6]: 6.82 |
| < 4.00 | 5.00 | > 10 | O=C(NO)c1cc2ccc([N+](=O)[O-])cc2nc1O | – |
| 4.40 | 4.82 | 2.6 | CCOP(=O)(O)c1cc2cc(Cl)c(Cl)cc2nc1O | – |
| 4.52 | 5.40 | 7.5 | O=P(O)(O)c1cc2c(Cl)cc(Cl)cc2nc1O | pIC50 (Glutamate NMDA receptor [4]): 5.29; ED50 (Mus musculus [7]): > 50 mg/kg; pIC50 [6]: 5.46 |
| 4.29 | 6.82 | 343 | O=[N+]([O-])c1cc2cc(P(=O)(O)O)c(O)nc2cc1[N+](=O)[O-] | – |
| 6.09 | 5.00 | 0.08 | O=C(O)c1cc2cc(Cl)c(Cl)cc2nc1O | – |
| – | – | 39.8 | O=P(O)(O)c1cc2cc(Cl)c(Cl)cc2nc1O | Protection (Gerbillinae [8]): 40%; ED50 (Mus musculus [5]): 19 mg/kg; ED50 (Mus musculus [9]): 45 mg/kg; Protection (Gerbillinae [10]): 100% |
| 4.08 | 5.68 | – | O=c1[nH]c2cc(Cl)c(Cl)cc2cc1P(=O)(O)O | pIC50 (Glutamate NMDA receptor [4]): 3.95; pIC50 [6]: 6.05 |
| 4.24 | 5.85 | 41 | O=[N+]([O-])c1ccc2cc(P(=O)(O)O)c(O)nc2c1 | – |
| 4.29 | < 4.00 | < 0.5 | CP(=O)(O)c1cc2c(Cl)cc(Cl)cc2nc1O | – |
| 4.13 | 4.82 | 5 | O=P(O)(OCC1CCCC1)c1cc2cc(Cl)c(Cl)cc2nc1O | – |
| 3.95 | 4.19 | 1.71 | O=P(O)(O)c1cc2cc(F)c(F)cc2nc1O | – |
